Source: ChEMBL document CHEMBL5360557 (Eur J Med Chem, 2023)
Active and inactive are the calls of the source. No cut-off for these calls is given here.

Tests used:
[1] = Cytotoxicity against human SH-SY5Y cells assessed as inhibition of cell growth incubated for 24 hrs by MTT assay; assay type: toxicity, cell-based
Acetylcholinesterase = Acetylcholinesterase (Homo sapiens, UniProt P22303); experiment: Inhibition of recombinant human AChE using acetylthiocholine iodide as substrate preincubated with enzyme for 5 mins followed by substrate addition and measured after 1 min by Ellman's method
[2] = Cytotoxicity against human HepG2 cells assessed as inhibition of cell growth incubated for 24 hrs by MTT assay; assay type: toxicity, cell-based
Cholinesterase [3] = target: T1, Cholinesterase (Homo sapiens, UniProt P06276); experiment: Inhibition of recombinant human BuChE using butyrylthiocholine iodide as substrate preincubated with enzyme for 5 mins followed by substrate addition and measured after 1 min by Ellman's method
in vitro = conditions: PAMPA
Description: Permeability of the compound incubated for 3 to 6 hrs by PAMPA-BBB assay

Cholinesterase [4] = target: T1, Cholinesterase; experiment: Competitive inhibition of human BuChE using butyrylthiocholine iodide as substrate assessed as inhibition constant preincubated with enzyme for 5 mins followed by substrate addition and measured after 1 min by Lineweaver-Burk plot based Ellman's method
Cholinesterase [5] = target: T1, Cholinesterase; experiment: Inhibition of recombinant human BuChE using butyrylthiocholine iodide as substrate at 10 uM preincubated with enzyme for 5 mins followed by substrate addition and measured after 1 min by Ellman's method relative to control; conditions: time 6.0 min
Cholinesterase [6] = target: T1, Cholinesterase; experiment: Competitive inhibition of human BuChE using butyrylthiocholine iodide as substrate assessed as increase in Km with constant apparent Vmax preincubated with enzyme for 5 mins followed by substrate addition and measured after 1 min by Lineweaver-Burk plot based Ellman's method; conditions: time 6.0 min

T1 sequence (P06276 whole entry): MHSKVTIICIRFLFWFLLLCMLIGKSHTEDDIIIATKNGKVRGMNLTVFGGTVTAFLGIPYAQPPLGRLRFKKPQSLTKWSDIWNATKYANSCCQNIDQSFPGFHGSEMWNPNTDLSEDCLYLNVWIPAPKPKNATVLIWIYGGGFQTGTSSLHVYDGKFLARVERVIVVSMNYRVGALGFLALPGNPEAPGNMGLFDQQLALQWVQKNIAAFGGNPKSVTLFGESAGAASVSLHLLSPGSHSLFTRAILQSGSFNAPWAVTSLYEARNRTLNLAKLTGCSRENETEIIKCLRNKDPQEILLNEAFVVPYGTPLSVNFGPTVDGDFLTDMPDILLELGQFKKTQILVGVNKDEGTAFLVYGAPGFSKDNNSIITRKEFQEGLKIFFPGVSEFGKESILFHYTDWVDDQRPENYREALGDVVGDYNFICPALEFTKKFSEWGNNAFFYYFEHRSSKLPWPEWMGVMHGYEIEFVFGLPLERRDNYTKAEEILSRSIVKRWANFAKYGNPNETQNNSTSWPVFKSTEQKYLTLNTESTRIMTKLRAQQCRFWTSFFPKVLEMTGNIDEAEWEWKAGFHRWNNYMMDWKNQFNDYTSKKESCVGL
Sequence of Acetylcholinesterase (P22303 whole entry): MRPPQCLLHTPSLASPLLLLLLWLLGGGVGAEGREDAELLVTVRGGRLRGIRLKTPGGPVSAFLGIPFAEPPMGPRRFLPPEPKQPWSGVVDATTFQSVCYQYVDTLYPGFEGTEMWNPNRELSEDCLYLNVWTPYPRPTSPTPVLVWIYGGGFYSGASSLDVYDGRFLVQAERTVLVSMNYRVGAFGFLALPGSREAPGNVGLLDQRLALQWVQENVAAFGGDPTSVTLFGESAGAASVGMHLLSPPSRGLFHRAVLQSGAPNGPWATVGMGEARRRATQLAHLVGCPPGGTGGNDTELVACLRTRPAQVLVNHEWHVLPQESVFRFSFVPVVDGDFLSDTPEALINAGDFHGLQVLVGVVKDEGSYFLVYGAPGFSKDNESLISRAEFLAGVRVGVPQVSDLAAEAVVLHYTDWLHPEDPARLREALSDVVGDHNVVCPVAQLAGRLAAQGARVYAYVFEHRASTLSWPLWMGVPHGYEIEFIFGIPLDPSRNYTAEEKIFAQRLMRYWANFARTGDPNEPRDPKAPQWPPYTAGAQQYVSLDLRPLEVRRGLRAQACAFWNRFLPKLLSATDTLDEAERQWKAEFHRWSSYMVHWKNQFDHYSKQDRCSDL

Q: With `COc1cccc(CN(CCCc2ccccc2F)C2CCC2)c1OCc1ccccc1` as the molecule, how does the IC50 at 24 h [1] read?
A: The IC50 at 24 h was 87 µM.

Q: And the IC50 (Acetylcholinesterase)?
A: Its IC50 is over 10 µM.

Q: And the IC50 at 24 h [2]?
A: The IC50 at 24 h was 76 µM.

Q: And the IC50 (Cholinesterase [3])?
A: The IC50 was 0.004 µM.

Q: What about the Papp (in vitro) of the same molecule?
A: The Papp was 60 ×10⁻⁶ cm/s.

Q: And the Ki (Cholinesterase [4])?
A: Its Ki is 0.00404 µM.

Q: And the inhibition (Cholinesterase [5])?
A: Its inhibition is 99%.

Q: What about the inhibition (Cholinesterase [6]) of the same molecule?
A: The inhibition was “Active”.
